Laboratory results: patent US10464911B2, “1,3,4-oxadiazole sulfamide derivative compounds as histone deacetylase 6 inhibitor, and the pharmaceutical composition comprising the same” (Chong Kun Dang Pharmaceutical Corp., priority 2015, dated 2019)
pIC50: −log10 of the molar value.

How the values were obtained:
human recombinant HDAC1 = human recombinant HDAC1 (Homo sapiens (Human), UniProt Q13547); assay: HDAC1 enzyme activity inhibition assay (HDAC Fluorimetric Drug Discovery Kit); format: biochemical; details: human recombinant HDAC1, Fluor de Lys substrate 10 μM, 60 minutes
Description: In order to examine the HDAC6 selectivity of the compounds of formula I of the present invention by HDAC1 and HDAC6 enzymatic activity inhibition assays, an experiment was performed using a conventional substance as a control.
HDAC enzyme activity was measured using a HDAC Fluorimetric Drug Discovery Kit (BML-AK511, 516, Enzo Life Science). For the HDAC1 enzyme activity test, human recombinant HDAC1 (BML-SE456) was used as an enzyme source, and Fluor de Lys®-“SIRT1 (BNL-KI177) was used as a substrate. A 5-fold dilution of the compound was seeded into a 96-well plate, and then 0.3 μg of the enzyme and 10 μM of the substrate were added to each well of the plate and allowed to react at 30 for 60 minutes. Then, Fluor de Lys®-Developer II (BML-KI176) was added thereto and allowed to react for 30 minutes, after which the fluorescence value (Ex 360, Em 460) was measured using a multi-plate reader (Flexstation 3, Molecular Device). The HDAC6 enzyme was tested using human recombinant HDAC6 (382180) (Calbiochem) according to the same protocol as the HDAC1 enzyme activity test method. Based on the resulting values, each IC50 value was calculated using GraphPad Prism4.0 program.

human recombinant HDAC6 = human recombinant HDAC6 (Homo sapiens (Human), UniProt Q9UBN7); assay: HDAC6 enzyme activity inhibition assay (HDAC Fluorimetric Drug Discovery Kit); format: biochemical; details: for HDAC6 selectivity (fold): HDAC6 versus HDAC1; for pIC50: human recombinant HDAC6, same protocol as HDAC1 test
Summary of the method: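 Recombinant human HDAC1 or HDAC6 (0.3 μg) reacted with 10 μM Fluor de Lys-SIRT1 substrate and 5-fold compound dilutions for 60 min at 30 °C, followed by 30 min developer. Fluorescence read at Ex 360/Em 460; IC50 calculated from the values.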

Sequence of human recombinant HDAC6 (Q9UBN7 whole entry): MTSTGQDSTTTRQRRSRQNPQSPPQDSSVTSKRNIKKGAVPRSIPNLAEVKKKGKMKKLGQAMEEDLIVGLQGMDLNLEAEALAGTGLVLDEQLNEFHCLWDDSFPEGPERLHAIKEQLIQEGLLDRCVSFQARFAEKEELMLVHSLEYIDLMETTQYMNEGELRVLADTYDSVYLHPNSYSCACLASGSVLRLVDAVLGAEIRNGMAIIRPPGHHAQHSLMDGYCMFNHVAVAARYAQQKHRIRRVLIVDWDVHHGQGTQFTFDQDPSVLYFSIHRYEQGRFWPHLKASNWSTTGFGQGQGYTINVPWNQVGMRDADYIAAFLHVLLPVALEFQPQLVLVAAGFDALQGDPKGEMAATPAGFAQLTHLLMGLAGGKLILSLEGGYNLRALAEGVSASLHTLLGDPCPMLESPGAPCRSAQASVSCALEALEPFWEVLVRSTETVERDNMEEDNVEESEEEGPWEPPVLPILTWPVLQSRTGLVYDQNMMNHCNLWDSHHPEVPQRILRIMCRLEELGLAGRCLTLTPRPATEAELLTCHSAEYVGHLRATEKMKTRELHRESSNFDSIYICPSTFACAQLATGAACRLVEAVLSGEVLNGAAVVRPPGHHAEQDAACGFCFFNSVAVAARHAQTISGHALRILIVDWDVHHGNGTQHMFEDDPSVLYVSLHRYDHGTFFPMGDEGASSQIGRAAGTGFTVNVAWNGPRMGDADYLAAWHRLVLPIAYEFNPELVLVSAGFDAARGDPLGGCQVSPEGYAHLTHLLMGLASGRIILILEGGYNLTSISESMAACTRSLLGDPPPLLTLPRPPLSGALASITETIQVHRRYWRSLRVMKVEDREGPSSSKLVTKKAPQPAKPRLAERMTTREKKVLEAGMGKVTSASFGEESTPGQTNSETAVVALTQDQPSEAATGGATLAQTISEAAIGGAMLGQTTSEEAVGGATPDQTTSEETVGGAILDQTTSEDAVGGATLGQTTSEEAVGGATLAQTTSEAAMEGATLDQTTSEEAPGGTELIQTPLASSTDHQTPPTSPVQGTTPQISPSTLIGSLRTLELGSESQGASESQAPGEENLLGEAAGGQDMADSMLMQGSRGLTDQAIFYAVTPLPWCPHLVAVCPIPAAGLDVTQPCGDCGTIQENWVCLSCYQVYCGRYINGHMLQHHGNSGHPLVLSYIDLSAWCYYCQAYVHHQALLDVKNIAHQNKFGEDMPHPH
Sequence of human recombinant HDAC1 (Q13547 whole entry): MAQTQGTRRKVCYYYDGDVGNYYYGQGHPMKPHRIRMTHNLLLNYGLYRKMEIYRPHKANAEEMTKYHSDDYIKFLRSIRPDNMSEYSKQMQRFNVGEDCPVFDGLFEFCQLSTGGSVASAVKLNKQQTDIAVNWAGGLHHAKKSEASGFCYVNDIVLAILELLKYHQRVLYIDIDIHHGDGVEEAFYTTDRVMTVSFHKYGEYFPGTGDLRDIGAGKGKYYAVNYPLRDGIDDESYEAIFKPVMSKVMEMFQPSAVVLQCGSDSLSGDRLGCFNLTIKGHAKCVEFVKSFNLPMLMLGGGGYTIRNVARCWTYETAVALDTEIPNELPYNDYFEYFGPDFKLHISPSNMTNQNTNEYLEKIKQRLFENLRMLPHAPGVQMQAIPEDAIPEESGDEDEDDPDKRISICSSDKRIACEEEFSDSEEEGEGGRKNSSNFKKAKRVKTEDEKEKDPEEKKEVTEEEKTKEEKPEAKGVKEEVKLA

Row | SMILES | pIC50 (human recombinant HDAC1) | HDAC6 selectivity (fold) (human recombinant HDAC6) | pIC50 (human recombinant HDAC6)
1 | O=S1(=O)CCN(S(=O)(=O)N(Cc2ccc(-c3nnc(C(F)F)o3)cn2)c2ccc(F)c(Cl)c2)CC1 [Compound 11498, N-(3-chloro-4-fluorophenyl)-N-((5-(5-(difluoromethyl)-1,3,4-oxadiazol-2-yl)pyridin-2-yl)methyl)thiomorpholine-4-sulfonamide 1,1-dioxide] | 4.31 | 2141 | 7.64
2 | CN1CCN(CCN(C)S(=O)(=O)N(Cc2ccc(-c3nnc(C(F)F)o3)cc2)c2ccccc2)CC1 [Compound 11702, 2-((4-(((N-methyl-N-(2-(4-methylpiperazin-1-yl)ethyl)sulfamoyl)(phenyl)amino)methyl))phenyl)-5-(difluoromethyl)-1,3,4-oxadiazole] | 4.30 | 542 | 7.03
3 | Cl.O=S(=O)(N1CCNCC1)N(Cc1ccc(-c2nnc(C(F)(F)F)o2)cc1F)c1ccccc1 [Compound 11293, N-(2-fluoro-4-(5-(trifluoromethyl)-1,3,4-oxadiazol-2-yl)benzyl)-N-phenylpiperazine-1-sulfonamide Hydrochloride] | 4.12 | 1156 | 7.18
4 | CC(=O)N1[C@H](C)CN(S(=O)(=O)N(Cc2ccc(-c3nnc(C(F)F)o3)cc2)c2cccnc2)C[C@@H]1C [Compound 11660, (3S,5R)-4-acetyl-N-(4-(5-(difluoromethyl)-1,3,4-oxadiazol-2-yl)benzyl)-3,5-dimethyl-N-(pyridin-3-yl)piperazine-1-sulfonamide] | 4.12 | 1206 | 7.20
5 | O=S(=O)(N1CCN(C2COC2)CC1)N(Cc1ccc(-c2nnc(C(F)(F)F)o2)cc1F)c1ccccc1 [Compound 11527, N-(2-fluoro-4-(5-(trifluoromethyl)-1,3,4-oxadiazol-2-yl)benzyl)-4-(oxetan-3-yl)-N-phenylpiperazine-1-sulfonamide] | 4.32 | 627 | 7.12
6 | CN1CCN(S(=O)(=O)N(Cc2ccc(-c3nnc(C(F)F)o3)cc2)c2ccc(F)c(Cl)c2)CC1 [Compound 11654, N-(3-chloro-4-fluorophenyl)-N-(4-(5-(difluoromethyl)-1,3,4-oxadiazol-2-yl)benzyl)-4-methylpiperazine-1-sulfonamide] | 4.15 | 1996 | 7.44
7 | O=S(=O)(N1CCN(C2COC2)CC1)N(Cc1ccc(-c2nnc(C(F)(F)F)o2)cn1)c1ccccc1 [Compound 11528, 4-(oxetan-3-yl)-N-phenyl-N-((5-(5-(trifluoromethyl)-1,3,4-oxadiazol-2-yl)pyridin-2-yl)methyl)piperazine-1-sulfonamide] | 4.38 | 527 | 7.10
8 | CCN1[C@H](C)CN(S(=O)(=O)N(Cc2ccc(-c3nnc(C(F)F)o3)cn2)c2ccccc2)C[C@@H]1C [Compound 11661, (3S,5R)—N-((5-(5-(difluoromethyl)-1,3,4-oxadiazol-2-yl)pyridin-2-yl)methyl)-4-ethyl-3,5-dimethyl-N-phenylpiperazine-1-sulfonamide] | 3.94 | 1886 | 7.21
9 | CC(=O)N1[C@H](C)CN(S(=O)(=O)N(Cc2ccc(-c3nnc(C(F)F)o3)cn2)c2ccccc2)C[C@@H]1C [Compound 11659, (3S,5R)-4-acetyl-N-((5-(5-(difluoromethyl)-1,3,4-oxadiazol-2-yl)pyridin-2-yl)methyl)-3,5-dimethyl-N-phenylpiperazine-1-sulfonamide] | 4.14 | 2753 | 7.59
10 | O=S(=O)(N1CCN(C2COC2)CC1)N(Cc1ccc(-c2nnc(C(F)F)o2)cc1)c1ccc(F)c(Cl)c1 [Compound 11653, N-(3-chloro-4-fluorophenyl)-N-(4-(5-(difluoromethyl)-1,3,4-oxadiazol-2-yl)benzyl)-4-(oxetan-3-yl)piperazine-1-sulfonamide] | 4.28 | 1214 | 7.37
11 | C[C@@H]1CN(S(=O)(=O)N(Cc2ccc(-c3nnc(C(F)F)o3)cc2)c2cccnc2)C[C@H](C)N1C [Compound 11662, (3S,5R)—N-(4-(5-(difluoromethyl)-1,3,4-oxadiazol-2-yl)benzyl)-3,4,5-trimethyl-N-(pyridin-3-yl)piperazine-1-sulfonamide] | 4.26 | 1182 | 7.33
12 | Cl.O=S(=O)(N1CCNCC1)N(Cc1ccc(-c2nnc(C(F)(F)F)o2)cc1F)c1cccc(F)c1 [Compound 11309, N-(2-fluoro-4-(5-(trifluoromethyl)-1,3,4-oxadiazol-2-yl)benzyl)-N-(3-fluorophenyl)piperazine-1-sulfonamide Hydrochloride] | 4.38 | 710 | 7.24
